Data published in patent US11384115B2, “Nuclear sulfated oxysterol, potent regulator of lipid homeostasis, for therapy of hypercholesterolemia, hypertriglycerides, fatty liver diseases, and atherosclerosis” (Virginia Commonwealth University, priority 2004, dated 2022).

Assays:
HepG2 cells = experiment: Cholesterol levels in microsomal fractions by HPLC after cholesterol oxidase; assay type: cell-based, human; conditions: 0-25 μM
HMG CoA reductase mRNA [1] = experiment: HMG CoA reductase mRNA by real-time RT-PCR in HepG2 cells; assay type: cell-based, human; conditions: for inhibition of HMG CoA reductase mRNA: HepG2, lipid-depleted serum media
Method: HepG2 cells were grown in MEM containing non-essential amino acids, 0.03M NaHCO3, 10% FBS, 1 mM L-glutamine, 1 mM sodium pyruvate and 1% Pen/Strep and incubated at 37° C. in 5% CO2. When cells reached at ˜90% confluency, the oxysterols in DMSO or in ethanol (final concentration, 0.1%) and/or [1-^14C]acetate for cholesterol synthesis was added or otherwise as indicated. Microsomal and cytosol fractions were isolated from broken cells as described previously (10).
(§1) Total RNA was isolated from HepG2 cells using SV Total RNA Isolation Kit (Promega). Two μg of total RNA was used for first-strand cDNA synthesis as recommended by manufacture (Invitrogen). Real-time PCR was performed using SYBR Green on ABI 7500 Fast Real-Time PCR System (Applied Biosystems). The final reaction mixture contained 5 ng of cDNA, 100 nM of each primer, 10 μl of 2×SYBR® Green PCR Master Mix (Applied Biosystems), and RNase-free water to complete the reaction mixture volume to 20 μl. All reactions were performed in triplicate. The PCR was carried out for 40 cycles at 95° C. for 15 s and 60° C. for 1 min. The fluorescence was read during the reaction, allowing a continuous monitoring of the amount of PCR product. The data was normalized to internal control-β-actin or GAPDH mRNA. The sequences of primers for HMG CoA reductase used in real-time PCR are […] (SEQ ID NO: 1) (Forward) and […] (SEQ ID NO: 2) (Reverse).

HMG CoA reductase mRNA [2] = experiment: HMG CoA reductase mRNA by real-time RT-PCR in primary human hepatocytes; assay type: cell-based; design: effect on levels of HMG CoA reductase mRNA: dose or concentration left out as unconfirmed; conditions: for inhibition of HMG CoA reductase mRNA: PHH cultured in serum-free media
Method: Primary human hepatocytes were purchased from an NIH-approved facility (Liver Tissue Procurement Distribution System, Univ. of Minnesota). Cells were obtained from a random sampling of males and females 18-69 yr of age. Experiments were performed as cells became available to corroborate findings in experiments conducted in HepG2 cells as previous described (13).
as §1

PPARγ = molecular target: T1, PPARγ (Homo sapiens, UniProt P37231); experiment: Western blot of nuclear PPARγ levels in THP-1 macrophages; assay type: cell-based; conditions: for nuclear PPARγ protein levels: THP-1 macrophages, 4 hrs
T1 construct: THP-1 monocytes were differentiated to macrophages by adding 100 nM of phorbol 12-myristate 13-acetate (PMA); endogenous in cells; host or cells: THP-1 monocyte-derived macrophages (human, ATCC)
T1 sequence (P37231 1-505): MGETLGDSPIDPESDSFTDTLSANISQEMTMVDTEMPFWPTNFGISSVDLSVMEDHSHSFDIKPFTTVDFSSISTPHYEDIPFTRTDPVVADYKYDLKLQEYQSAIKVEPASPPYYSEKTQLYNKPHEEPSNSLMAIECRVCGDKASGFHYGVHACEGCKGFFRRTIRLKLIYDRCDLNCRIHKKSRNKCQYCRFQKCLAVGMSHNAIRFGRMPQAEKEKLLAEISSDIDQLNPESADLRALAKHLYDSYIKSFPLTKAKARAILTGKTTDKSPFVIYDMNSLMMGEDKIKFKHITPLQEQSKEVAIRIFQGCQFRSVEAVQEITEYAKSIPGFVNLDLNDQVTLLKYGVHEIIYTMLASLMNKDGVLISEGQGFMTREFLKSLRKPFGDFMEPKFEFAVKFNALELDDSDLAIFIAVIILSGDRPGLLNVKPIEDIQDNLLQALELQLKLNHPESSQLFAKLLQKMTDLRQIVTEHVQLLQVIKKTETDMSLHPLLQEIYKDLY
Method: FIGS. 21A and 21B. Effects of 25HC3S and 25HC on PPARγ protein levels in THP-1 macrophages. A, THP-1 macrophages were treated with 25HC3S (top panel) or 25HC (middle panel) at different concentration as indicated for 4 hrs. The nuclear PPARγ levels were analyzed by Western blot. […] Expression levels were normalized to Lamin as shown in the bottom panels. The data represent one typical result out of three experiments.
Human THP-1 monocytes and H441 cells were purchased from the American Type Culture Collection (Manassas, Va.) and maintained according to the supplier's protocols. THP-1 monocytes were differentiated to macrophages by adding 100 nM of phorbol 12-myristate 13-acetate (PMA). When cells reached 90% confluence, oxysterols in DMSO or in ethanol (the final concentration in media was <0.1%) were added as indicated. The cells were harvested at the times as indicated. Nuclear and cytosolic fractions were isolated using NE-PER®, Nuclear and Cytoplasmic Extraction Reagents (Pierce, Rockford, Ill. Western blot analysis of nuclear PPAR and intracellular I B levels
Fifty μg of total cell lysates or nuclear protein extracts, otherwise as indicated, were separated on 10% SDS-PAGE gels and transferred onto a polyvinylidene difluoride membrane as described previously. Membranes were blocked in TBS containing 5% of nonfat dried milk for 1 hr. The specific proteins were determined by incubation with specific antibodies against human PPAR or IκB overnight at 4° C. with shaking. After washing, the membrane was incubated in a 1:3,000 dilution of a secondary antibody (goat anti-rabbit or anti-mouse IgG-HP conjugate; Bio-Rad, Hercules, Calif.) at room temperature for 1 hr in the washing buffer (Tris buffered solution containing 0.5% Tween 20). The protein bands were visualized using Western Lightening Chemiluminescence Reagent (Perkin-Elmer, Waltham, Mass.). The expression levels were normalized to Lamin.

IL-1β and TNFα release = experiment: ELISA analysis of LPS-induced cytokine releases from macrophages; assay type: cell-based, human; conditions: LPS 1 μg/ml, 24 hrs; for LPS-induced IL-1β release: concentration-dependent
Method: A total of 1×10^6 macrophages were treated with LPS (1 μg/ml) and/or different concentrations of 25HC or 25HC3S for 24 hrs. Supernatants were harvested and cytokines IL-1ß and TNF-α concentration were measured by enzyme-linked immunosorbent assay (ELISA) according to manufacturer's instruction (SuperArray Bioscience, Frederick Md.). SiRNA-mediated macrophage RNA interference

IκB = IκB mRNA (RT-PCR) and protein (Western blot) in THP-1 macrophages; assay type: cell-based, human; conditions: for IκB protein levels: Western blot, 24 hrs; for IκB mRNA level: real time RT-PCR, 6 hrs; for increase of IκB mRNA levels: macrophages
Method: FIG. 25A-C. […] The Western blot data represents one of three experiments.
Fifty μg of total cell lysates or nuclear protein extracts, otherwise as indicated, were separated on 10% SDS-PAGE gels and transferred onto a polyvinylidene difluoride membrane as described previously [31]. Membranes were blocked in TBS containing 5% of nonfat dried milk for 1 hr. The specific proteins were determined by incubation with specific antibodies against human PPAR or IκB overnight at 4° C. with shaking. After washing, the membrane was incubated in a 1:3,000 dilution of a secondary antibody (goat anti-rabbit or anti-mouse IgG-HP conjugate; Bio-Rad, Hercules, Calif.) at room temperature for 1 hr in the washing buffer (Tris buffered solution containing 0.5% Tween 20). The protein bands were visualized using Western Lightening Chemiluminescence Reagent (Perkin-Elmer, Waltham, Mass.). The expression levels were normalized to Lamin.
Total RNA was isolated from THP-1 derived macrophages following treatments for 6 hrs otherwise as indicated using SV Total RNA Isolation Kit (Promega, Wisconsin, Wis.), which includes DNase treatment. Two microgram of total RNA was used for first-strand cDNA synthesis as recommended by manufacturer (Invitrogen, Carlsbad, Calif.). Real-time RT-PCR was performed using SYBR Green as indicator on ABI 7500 Fast Real-Time PCR System (Applied Biosystems, Foster City, Calif.). The final reaction mixture contained 10 ng of cDNA, 100 nM of each primer, 10 μl of 2×SYBR® Green PCR Master Mix (Applied Biosystems, Foster City, Calif.), and RNase-free water to complete the reaction mixture volume to 20 μl. All reactions were performed in triplicate. PCR was carried out for 40 cycles of 95° C. for 15 s and 60° C. for 1 min. The fluorescence was read during the reaction, allowing a continuous monitoring of the amount of PCR product. The data was normalized to internal control GAPDH.

LXR = conditions: macrophages, cited from earlier work
[3] = HepG2, in the presence of serum

Compound | cholesterol levels in the microsomal fraction (HepG2 cells) | inhibition of HMG CoA reductase (HMG CoA reductase mRNA [1]; [3]) [%] | inhibition of HMG CoA reductase mRNA (HMG CoA reductase mRNA [1]) | inhibition of HMG CoA reductase mRNA (HMG CoA reductase mRNA [2]) [%] | nuclear PPARγ protein levels (PPARγ) | LPS-induced IL-1β release (IL-1β and TNFα release) | IκB protein levels (IκB) | IκB mRNA level (IκB) | further results
C[C@H](CCCC(C)(C)O)[C@H]1CC[C@H]2[C@@H]3CC=C4C[C@@H](O)CC[C@]4(C)[C@H]3CC[C@]12C [25HC, 25-hydroxycholesterol, reference compound] | significantly decreased | 70 | more potent inhibition than 25HC3S | 15 | decreased | increased | decreased | no significantly changed | inhibition of the mRNA of HMG CoA reductase and SREBP1 (HMG CoA reductase mRNA [1]; HepG2, at 3 μM): 85%; inhibition of HMG CoA reductase (HMG CoA reductase mRNA [1]; HepG2, lipids depleted serum): 90%; effect on levels of HMG CoA reductase mRNA (HMG CoA reductase mRNA [2]; PHH, serum-free media): ~15%; rosiglitazone-increased nuclear PPARγ levels (PPARγ; preincubated with 1 μM of rosiglitazone for 2 hrs, 25HC for 4 hrs): significantly inhibited; increase of LXR targeting gene expressions, ABCA1/G1 and SREBP-1 mRNAs (LXR; in 6 hrs): 5-50 fold
C[C@H](CCCC(C)(C)O)[C@H]1CC[C@H]2[C@@H]3CC=C4C[C@@H](OS(=O)(=O)O)CC[C@]4(C)[C@H]3CC[C@]12C [25HC3S, 5-cholesten-3β, 25-diol 3-sulphate] | significantly decreased | 70 | still strongly inhibits | 75 | substantially increased | significantly decreased | increased | significantly increased | cholesterol levels in the microsomal fraction (HepG2 cells; listed as nuclear oxysterol): significant decrease; HMG CoA reductase mRNA (HMG CoA reductase mRNA [1]; HepG2, 10% FBS media): concentration dependent decreases; inhibition of the mRNA of HMG CoA reductase and SREBP1 (HMG CoA reductase mRNA [1]; HepG2, at 12 μM): 85%; nuclear PPARγ levels in the presence of the antagonist T0070907 (PPARγ; preincubated with 1 μM of T0070907 for 2 hrs): failed to increase the nuclear PPARγ levels to its maxima; LPS-induced release of TNFα (IL-1β and TNFα release): represses; increase of IκB mRNA levels (IκB; 12 μM): 2.5 folds; increase of IκB mRNA levels (IκB; in the presence of TNFα): 6 folds; LXR activities and its targeting gene expressions (LXR): decreases
